{"source": "patent US8133687B2", "about": "“Labor biomarkers, methods comprising same, and methods targeting same” (The Trustees of the University of Pennsylvania, priority 2005, dated 2012)", "test_system": "rat aorta-derived A7R5 vascular smooth muscle cells", "type": "cell-based", "details": "for effect on bradykinin response (cell area): added together with 5 nM bradykinin; for effect on cell area when administered without bradykinin: peptide alone; for effect on PGF2α-induced decrease in cell area: with PGF2α (0.56 nM PG in FIG. 10); for effect on oxytocin-induced decrease in cell area: with oxytocin (10 nM OT in FIG. 10)", "description": "PA gels of controlled stiffness were coated with a nearly constant collagen level (5×10^2 ng/cm^2) as assessed by fluorescent collagen intensities. […] To assess the ability of peptides found in cervicovaginal fluid to activate smooth muscle cells, rat aorta-derived […] vascular smooth muscle cells ([…]; ATCC, Manassas, Va.) were plated onto polyacrylamide gel surfaces (34 kPa) with collagen type 1 (BD Biosciences, San Diego) and covalently pre-attached to the gel surface by sulpho-SANPAH (Pierce, Rockland, Ill.), providing a quantitative and reproducible uterotonics activity assay. Cells were permitted to adhere to the surface for 30 minutes, then were incubated at 37° C. for 4 hours with bradykinin (0-1 μM, Sigma-Aldrich, St. […] Data was fit to a hyperbolic expression using a least squared method, with the half-saturation constant (IC50) representing the intermediate set-point for the system.", "key": {"[1]": {"details": "agonist alone, A7R5 cells, 4 hours at 37° C., read-out: IC50 of dose-dependent decrease in cell area"}, "[2]": {"details": "A7R5 cells, listed as potentiation peptide (PP)"}}, "note": "Where two headings read alike, the source gives them in different places. Where no end group is shown, it is not given here."}
{"molecule": "CC[C@H](C)[C@@H]1NC(=O)[C@H](Cc2ccc(O)cc2)NC(=O)[C@@H](N)CSSC[C@@H](C(=O)N2CCC[C@H]2C(=O)N[C@@H](CC(C)C)C(=O)NCC(N)=O)NC(=O)[C@H](CC(N)=O)NC(=O)[C@H](CCC(N)=O)NC1=O", "note": "[Oxytocin, oxytocin, reference compound]", "values": [{"measurement": "IC50", "setting": "4 h", "result": 8, "unit": "nM"}]}
{"molecule": "CCCCC[C@H](O)/C=C/[C@@H]1[C@@H](C/C=C\\CCCC(=O)O)[C@@H](O)C[C@H]1O", "note": "[PGF2α, reference compound]", "values": [{"measurement": "IC50", "setting": "agonist alone, A7R5 cells, 4 hours at 37° C., listed as PGF2-α, read-out: IC50 of dose-dependent decrease in cell area", "result": 0.56, "unit": "nM"}, {"measurement": "IC50", "setting": "[1]", "result": 1, "unit": "nM"}]}
{"molecule": "AAHLPAEFTPAVHASLDKF [2.022 kDa peptide, amino acids 110-128 of α-chain hemoglobin]", "values": [{"measurement": "effect on bradykinin response (cell area)", "setting": "A7R5 cells", "result": "augmented the bradykinin response"}, {"measurement": "effect on bradykinin response (cell area)", "setting": "[2]", "result": "augmented the 5 nM BK response"}, {"measurement": "effect on decrease in cell area elicited by maximal doses of bradykinin", "setting": "bradykinin 1 μM, A7R5 cells", "result": "not affected"}, {"measurement": "effect on cell area when administered without bradykinin", "setting": "A7R5 cells", "result": "Neither the 2.022 kDa peptide nor the control peptide had an effect on cell area"}, {"measurement": "effect on PGF2α-induced decrease in cell area", "setting": "A7R5 cells", "result": "enhanced by sub-μM amounts"}, {"measurement": "effect on PGF2α-induced decrease in cell area", "setting": "[2]", "result": "augmented the 0.56 nM PG response"}, {"measurement": "EC50", "setting": "with half-saturation dose of bradykinin (5 nM), A7R5 cells, read-out: half-saturation effect of the peptide on the bradykinin response", "result": 9.35, "unit": "µM"}, {"measurement": "effect on oxytocin-induced decrease in cell area", "setting": "A7R5 cells", "result": "enhanced by sub-μM amounts"}, {"measurement": "effect on oxytocin-induced decrease in cell area", "setting": "[2]", "result": "augmented the 10 nM OT response"}]}
{"molecule": "KAHEFYLAAHPTDALFASP (KAHEFYLAAHPTDALFASP-NH2) [control peptide, same amino acids as the 2.022 kDa peptide, residues ordered randomly, reference compound]", "values": [{"measurement": "effect on bradykinin response (cell area)", "setting": "A7R5 cells", "result": "did not affect the bradykinin response"}, {"measurement": "effect on cell area when administered without bradykinin", "setting": "A7R5 cells", "result": "Neither the 2.022 kDa peptide nor the control peptide had an effect on cell area"}]}
{"molecule": "RPPGFSPFR [Bradykinin, bradykinin, reference compound]", "values": [{"measurement": "IC50", "setting": "[1]", "result": 5, "unit": "nM"}]}
